Data as given in ChEMBL document CHEMBL1201862, “PubChem BioAssay data set” (2004).
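Each compound was tested at five concentrations against cells in 96-well plates for 48 hours. At the GI50, growth is halved.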 Calls of active or inactive are those of the source. Cut-off read from the data, not from the text of the source: active = GI50 up to about 1.1 µM and inactive = higher.

Experiments:
Assay in all cases: NCI tumour cell line growth inhibition, 48 h
A549 = test system: A549
CCRF-CEM = test system: CCRF-CEM
COLO 205 = test system: COLO 205
EKVX = test system: EKVX
HL-60 = test system: HL-60
Hs-578T = test system: Hs-578T
IGROV-1 = test system: IGROV-1
M14 = test system: M14
MDA-MB-231 = test system: MDA-MB-231
OVCAR-4 = test system: OVCAR-4
OVCAR-8 = test system: OVCAR-8
RPMI-8226 = test system: RPMI-8226
SF-268 = test system: SF-268
SF-539 = test system: SF-539
SK-OV-3 = test system: SK-OV-3
U-251 = test system: U-251
UACC-62 = test system: UACC-62
UO-31 = test system: UO-31
Malme-3M = test system: Malme-3M
NCI/ADR-RES = test system: NCI/ADR-RES

Measured: GI50

CC(=O)OC1CC(O)CC2=CCC3C4CCC(C(C)(O)C(O)CC5COC(=O)C5C)C4(C)CCC3C21C (stereo not drawn)
inactive: A549 > 25 µM | CCRF-CEM 16.5 µM | COLO 205 > 25 µM | EKVX 8.89 µM | HL-60 4.39 µM | Hs-578T 10.3 µM | IGROV-1 > 25 µM | M14 > 25 µM | MDA-MB-231 13 µM | OVCAR-4 > 25 µM | OVCAR-8 > 25 µM | RPMI-8226 14.6 µM | SF-268 > 25 µM | SF-539 > 25 µM | SK-OV-3 > 25 µM | U-251 > 25 µM | UACC-62 21.4 µM | UO-31 8.59 µM

CC(C)=CC1C[C@H](C2CC=C3C2(C)CCC2[C@@]3(C)C(=O)CC3[C@]2(C)C=CC(=O)[C@]3(C)CO)CO1 (stereo partly drawn)
inactive: A549 20.8 µM | CCRF-CEM 2.96 µM | COLO 205 14 µM | EKVX 26.2 µM | HL-60 2.92 µM | IGROV-1 13.6 µM | M14 3.12 µM | Malme-3M 11.5 µM | OVCAR-4 10.7 µM | OVCAR-8 4.55 µM | RPMI-8226 3.15 µM | SF-268 5.82 µM | SF-539 4.57 µM | SK-OV-3 16.6 µM | U-251 8.83 µM | UACC-62 11.8 µM | UO-31 18.6 µM

O=C1C(Cl)=C(NCCN2CCOCC2)C(=O)c2c(O)ccc(O)c21
inactive: A549 2.12 µM | CCRF-CEM 1.56 µM | COLO 205 1.5 µM | EKVX 4.9 µM | Hs-578T 3.13 µM | IGROV-1 1.88 µM | M14 1.84 µM | MDA-MB-231 2.39 µM | Malme-3M 1.84 µM | NCI/ADR-RES 2.09 µM | OVCAR-4 1.72 µM | OVCAR-8 3.25 µM | SF-268 2.28 µM | SF-539 1.75 µM | SK-OV-3 10 µM | U-251 2.21 µM | UACC-62 1.48 µM | UO-31 2.36 µM

CCC(=C(c1ccc(OCc2ccccc2)cc1)c1ccc(OCc2ccccc2)cc1)c1ccc(OC)cc1
inactive: A549 > 100 µM | CCRF-CEM > 100 µM | COLO 205 > 100 µM | EKVX > 100 µM | HL-60 > 100 µM | IGROV-1 > 100 µM | M14 > 100 µM | Malme-3M > 100 µM | OVCAR-4 > 100 µM | OVCAR-8 > 100 µM | RPMI-8226 > 100 µM | SF-268 > 100 µM | SF-539 > 100 µM | SK-OV-3 > 100 µM | U-251 > 100 µM | UACC-62 > 100 µM | UO-31 > 100 µM

COc1cc2c(cc1OC)CC(=O)Nc1cc(OC)c(OC)cc1CC2
inactive: A549 63 µM | CCRF-CEM 51.2 µM | COLO 205 38.2 µM | EKVX > 100 µM | HL-60 20.8 µM | IGROV-1 > 85.9 µM | M14 36.1 µM | Malme-3M 20.8 µM | OVCAR-4 > 53.5 µM | OVCAR-8 53.8 µM | RPMI-8226 2.89 µM | SF-268 80.9 µM | SF-539 33.2 µM | SK-OV-3 38.6 µM | U-251 54.7 µM | UACC-62 36.1 µM | UO-31 61.9 µM

CCOC(=O)C(C(=O)OCC)=C1C=C(c2ccccc2)c2ccccc21
inactive: A549 79.3 µM | CCRF-CEM 27.5 µM | COLO 205 54.2 µM | EKVX > 100 µM | HL-60 20.5 µM | IGROV-1 > 100 µM | M14 35.9 µM | Malme-3M > 100 µM | OVCAR-4 38.3 µM | OVCAR-8 > 100 µM | RPMI-8226 16.6 µM | SF-268 > 100 µM | SF-539 62.7 µM | SK-OV-3 > 100 µM | U-251 86.7 µM | UACC-62 > 100 µM | UO-31 > 100 µM

COc1ccc(CN[C@H]2CCc3cc(OC)c(OC)c(OC)c3-c3ccc(SC)c(=O)cc32)c(OC)c1OC
active: A549 0.0459 µM | CCRF-CEM 0.0356 µM | COLO 205 0.0234 µM | EKVX 0.0237 µM | HL-60 0.0266 µM | IGROV-1 0.135 µM | M14 0.0308 µM | Malme-3M 0.0484 µM | OVCAR-4 0.0343 µM | OVCAR-8 0.0277 µM | RPMI-8226 0.0352 µM | SF-268 0.0366 µM | SF-539 0.0211 µM | SK-OV-3 0.0293 µM | U-251 0.0194 µM | UACC-62 0.023 µM | UO-31 0.132 µM

Cc1c(Cl)cccc1NC(=O)C(=O)C1C(=O)CC(C)(C)CC1=O
inactive: A549 > 100 µM | CCRF-CEM > 100 µM | COLO 205 > 100 µM | EKVX > 100 µM | HL-60 > 100 µM | IGROV-1 > 100 µM | M14 > 100 µM | Malme-3M > 100 µM | OVCAR-4 > 100 µM | OVCAR-8 > 100 µM | RPMI-8226 > 100 µM | SF-268 > 100 µM | SF-539 > 100 µM | SK-OV-3 > 100 µM | U-251 > 100 µM | UACC-62 > 100 µM | UO-31 > 100 µM
